These results are taken from US7528124B2, “1,3-dihydro-2H-indol-2-one derivative” (Taisho Pharmaceutical Co., Ltd., priority 2003, dated 2009).

The data set can be described thus: Measurement of drug concentration in plasma and brain following oral administration to rats (LC/MS/MS). It counts as in vivo, Sprague-Dawley rats. Conditions: rat; for concentration at 1 h: Table 2, 1 hour after administration. On the procedure: Measurement of Drug Concentration in Plasma and Brain following Oral Administration to Rats
The compound of Example 1 and compound A (WO01/55130, listed in EXEMPLE 1) were orally administered to Sprague-Dawley rats (male, 8 weeks) at a dose of 5 mL/kg (10 mg/kg) as solutions (each compound was dissolved with 0.03 mol/L HCl containing 5% Cremophor EL, and concentration was prepared by 2 mg/ml).
Blood was collected from the tail vein at 1 and 2 hours after administration. Immediately the brain was excised, 20% homogenate was prepared with distilled water, for assay sample. Similarly, 0.3 mL of blood was collected from the tail vein at 2, 4, 8, and 24 hours following administration, and the plasma following centrifugation was used as a sample.
The concentrations of the compound of Example 1 and compound A in plasma were measured using liquid chromatography tandem mass spectrometry (LC/MS/MS). Specifically, 200 μL of acetonitrile was added to 50 μL of plasma or brain homogenate, vortex mixed and centrifuged. The resulting supernatant was put in a liquid chromatograph with an Agilent Zorbax SB-C18 5 μm column (50 mm long, 2.1 mm in diameter). The elute was 0.1% acetic acid/acetonitrile containing 0.1% acetic acid. The MS/MS detection were performed using a Sciex API3000 LC/MS/MS system with ESI for ionization, in positive ions and MRM mode for monitoring. The m/z 632→472 and m/z 630→472 were monitored for the compound of Example 1 and compound A, respectively.
The concentration of plasma and brain at each sampling point and mean plasma levels after oral administration were shown in Table 2 and Table 3, respectively.

Read-outs that look alike come from different tables or passages of the source.

On to `COc1ccc(S(=O)(=O)N2C(=O)C(c3ccccc3OC)(N3C[C@H](F)C[C@H]3C(=O)N(C)C)c3cc(Cl)ccc32)c(OC)c1` (single isomer, unassigned) [Example 1], for which the concentration at 1 h came to 35 ng/g (male, Sprague-Dawley, brain, po, 10 mg/kg, brain homogenate, average of three, read-out: Drug concentration, brain, 1 hour) and 440 ng/mL (male, Sprague-Dawley, plasma, po, 10 mg/kg, average of three, read-out: Drug concentration, plasma, 1 hour). Also, the concentration at 2 h came out at 219 ng/mL (male, Sprague-Dawley, plasma, po, 10 mg/kg, Table 2, 2 hours after administration, average of three, read-out: Drug concentration, plasma, 2 hours); 139 ng/mL (male, Sprague-Dawley, plasma, po, 10 mg/kg, Table 3, serial tail vein sampling, 2 hours, average of three, read-out: Drug concentration in plasma, 2 hours); 11 ng/g (male, Sprague-Dawley, Table 2, oral 10 mg/kg, 2 hours after administration, brain homogenate, average of three, ND: below the quantification detection limit of 5 ng/mL, read-out: Drug concentration, brain, 2 hours). For the same compound, the concentration at 4 h (male, Sprague-Dawley, plasma, po, 10 mg/kg, Table 3, serial tail vein sampling, 4 hours, average of three) came to 51 ng/mL. This compound also gave a concentration at 8 h (male, Sprague-Dawley, plasma, po, 10 mg/kg, Table 3, serial tail vein sampling, 8 hours, average of three) of 10 ng/mL. The “plasma levels compared with compound A” value (oral 10 mg/kg, after 2 hours) was “higher plasma levels”. Moreover, the “brain levels compared with compound A” value (oral 10 mg/kg, at 1 and 2 hours) is on record as “higher than those of compound A”.
